# Test results: patent US20100255598A1, “Medication Adherence Monitoring System” (priority 2007, published 2010)
# Like-named read-outs stand apart in the source and are kept apart here.
# Key:
# [1] = test system: alcohol dehydrogenase (ADH); assay: Breath ketone:alcohol ratio after 2° alcohol taggant; format: in vivo; settings: breath concentrations
# Experimental: The presence (and persistence) of their corresponding ketones (EDIMs) in exhaled breath represents definitive proof of ingestion of a medication containing 2° alcohols (or a 2° alcohol-based ester, carbonate ester, ketal, etc.) as taggants. In general due to increased steric hindrance, 2° alcohols are not as good substrates for ADH relative to 1° alcohols. Likewise, the enzymatic pathways to degrade alcohol-derived ketones appear less efficient than those for alcohol-derived aldehydes.
# [2] = test system: alcohol dehydrogenase; settings: cited from earlier work
# [3] = target: T1, CYP1A2 (Homo sapiens, UniProt P05177); settings: given orally to humans; cited from earlier work
# T1 sequence (P05177 1-516): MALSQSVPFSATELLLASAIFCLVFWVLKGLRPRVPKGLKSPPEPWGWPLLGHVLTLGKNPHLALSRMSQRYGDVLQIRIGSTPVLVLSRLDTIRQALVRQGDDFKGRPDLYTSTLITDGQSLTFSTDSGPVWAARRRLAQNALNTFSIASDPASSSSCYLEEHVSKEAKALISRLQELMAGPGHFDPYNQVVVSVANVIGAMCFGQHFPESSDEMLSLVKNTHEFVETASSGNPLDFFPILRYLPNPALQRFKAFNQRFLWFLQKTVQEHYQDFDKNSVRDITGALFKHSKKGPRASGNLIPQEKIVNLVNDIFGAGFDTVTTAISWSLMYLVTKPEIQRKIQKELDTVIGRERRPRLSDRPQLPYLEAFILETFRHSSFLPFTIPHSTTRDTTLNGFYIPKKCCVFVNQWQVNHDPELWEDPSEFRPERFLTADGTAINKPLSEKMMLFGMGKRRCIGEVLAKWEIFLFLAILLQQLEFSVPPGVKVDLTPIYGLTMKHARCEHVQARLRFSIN
# [4] = target: CYP 2D6 (Homo sapiens, UniProt P10635); settings: via CYP 2D6; cited from earlier work
# Chain of CYP 2D6 (P10635 whole entry): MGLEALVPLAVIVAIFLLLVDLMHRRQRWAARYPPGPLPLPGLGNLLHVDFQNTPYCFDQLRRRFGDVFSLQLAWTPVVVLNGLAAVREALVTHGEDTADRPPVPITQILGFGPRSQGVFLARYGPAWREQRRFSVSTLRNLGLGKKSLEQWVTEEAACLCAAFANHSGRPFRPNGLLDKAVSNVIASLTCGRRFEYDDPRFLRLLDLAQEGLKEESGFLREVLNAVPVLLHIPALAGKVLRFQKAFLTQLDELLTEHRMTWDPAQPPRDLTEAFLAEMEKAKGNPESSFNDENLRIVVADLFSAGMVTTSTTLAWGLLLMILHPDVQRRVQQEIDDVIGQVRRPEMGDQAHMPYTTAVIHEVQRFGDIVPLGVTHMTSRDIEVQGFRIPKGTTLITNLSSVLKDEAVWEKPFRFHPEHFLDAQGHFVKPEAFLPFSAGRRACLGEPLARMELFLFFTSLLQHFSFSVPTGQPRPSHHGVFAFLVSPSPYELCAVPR
# [5] = at 37° C.; cited from earlier work
smiles,measurement,setting,value
CCC(C)=O [2-butanone],ketone:alcohol ratio 2-butanone/2-butanol,[1],> 1
"CO [Methanol, methanol]",half life in the blood,[2]; in the absence of alcohol,1.8 to 3.0 h
same,half life in the blood,[2]; in the presence of alcohol,8 to 24 h
Cn1c(=O)c2c(ncn2C)n(C)c1=O [caffeine],fraction converted to theophylline,[3],Approximately 80%
COc1ccc2c3c1O[C@H]1[C@@H](O)C=C[C@H]4[C@@H](C2)N(C)CC[C@@]341 [codeine],fraction converted to morphine in vivo,[4],about 10%
CC(C)c1cccc(C(C)C)c1O [propofol],vapor pressure,[5],~0.2 mmHg
